Usually Kd stands for a measure of binding affinity in units of concentration.

The source made the active and inactive calls. No rule for the calls is given here.

This assay concerns the target Influenza A virus M2 proton channel (A/TW/4845/1999 H1N1). Nature of the assay: NMR binding screen, influenza A virus M2 proton channel, Kd (AID 1549). As to conditions: M2 protein.
Regarding `CNC[C@@H](O)c1ccc(O)c(O)c1`, the Kd was > 4 mM (inactive).
The same measure for `S=C(NCc1cccnc1)NC1CC1`: > 4 mM (inactive).
For the molecule `CC(C)=CCc1c(O)cc2oc(C)cc(=O)c2c1O`, the Kd was > 4 mM (inactive).
As for `COc1cc(N)ccc1NC(=O)c1cccs1`, the Kd was > 4 mM (inactive).
Turning to `CCOC(=O)C1CCN(c2ccc(C#N)cc2)CC1`, the Kd was > 4 mM (inactive).
Take `CCC(=O)n1nc(-c2ccco2)nc1N`: the Kd is > 4 mM (inactive).
Regarding `Oc1cc(O)c2c(c1)O[C@H](c1ccc(O)c(O)c1)[C@@H](O)C2`, the Kd was > 4 mM (inactive).
Take `CC(=O)Nc1ccc2c(c1)C(=O)N(C1CCCCC1)C2=O`: the Kd was > 4 mM (inactive).
`CC(C)CCCC(C)[C@H]1CCC2C3CC[C@@H]4C[C@H](O)CC[C@]4(C)C3CC[C@@]21C` (stereo partly drawn): the Kd was > 4 mM (inactive).
On to `N#Cc1cc(-c2ccccc2)oc1N`, for which the Kd is > 4 mM (inactive).
For the molecule `c1ccc(-c2noc(-c3ccc4c(c3)OCO4)n2)nc1`, the Kd was > 4 mM (inactive).
The same measure for `CC(O)c1ccc(C(C)O)cc1` (stereo not drawn): > 4 mM (inactive); for `NC(=O)c1cc(N)cc(C(N)=O)c1`: > 4 mM (inactive).
For the molecule `Nc1cccc(-n2cccc2)c1`, the Kd is > 4 mM (inactive).
Regarding `Cc1ccc(C(=O)N2CCC(C(=O)O)CC2)cc1`, the Kd was > 4 mM (inactive).
On to `CC(=O)Oc1ccc(N2C(=O)C3C4C=CC(O4)C3C2=O)cc1` (stereo not drawn), for which the Kd was > 4 mM (inactive).
Take `CC(=O)Nc1cnn(-c2ccccc2)c(=O)c1Cl`: the Kd was > 4 mM (inactive).
The same measure for `CC1(C)Cn2c(nnc2-c2ccccc2)S1`: > 4 mM (inactive); for `Cn1c(CN)nc2ccccc21`: > 4 mM (inactive); for `S=C(Nc1ccccc1)Nc1nncs1`: > 4 mM (inactive).
The same measure for `COc1ccc([C@@H]2CC(=O)c3c(O)cc(O)cc3O2)cc1O`: > 4 mM (inactive); for `COc1c2c(cc3c1OCO3)C13C=C[C@H](OC)CC1N(C2)CC3O` (stereo partly drawn): > 4 mM (inactive).
With `CSc1ccccc1NC(=O)c1ccncc1`, the Kd is > 4 mM (inactive).
Regarding `CCC1(CC)C(=O)NC(=O)N=C1N`, the Kd is > 4 mM (inactive).
With `O=C(c1ccncc1)N1CCN(C(=O)c2ccncc2)CC1`, the Kd is > 4 mM (inactive).
As to `O=C(Nc1nccs1)c1ccc(=O)[nH]n1`, the Kd is > 4 mM (inactive).
The same measure for `COc1ccccc1-c1cn[nH]c(=S)n1`: > 4 mM (inactive).
The same measure for `Cc1nccc2c1[nH]c1ccccc12`: > 4 mM (inactive); for `OC1CNCc2cc3c(cc21)OCCO3` (stereo not drawn): > 4 mM (inactive); for `O=C(O)Cn1c(=O)sc2ccccc21`: > 4 mM (inactive).
The same measure for `COc1cccc(-c2csc(NC(C)=O)n2)c1`: > 4 mM (inactive).
Take `C=C1C2CC[C@@]3(C)[C@H](c4ccoc4)OC(=O)C[C@]13O[C@H]1CC(=O)C(C)(C)[C@H](C(O)C(=O)OC)[C@@]21C` (stereo partly drawn): the Kd is > 4 mM (inactive).
As for `c1ccc(-c2noc(-c3cccnc3)n2)nc1`, the Kd was > 4 mM (inactive).
With `Nc1ncnc2c1ncn2C1O[C@H](COP(=O)(O)O)[C@@H](O)[C@H]1O` (stereo partly drawn), the Kd is > 4 mM (inactive).
The same measure for `Cc1cc2ncn(S(=O)(=O)N3CCOCC3)c2cc1C`: > 4 mM (inactive); for `Cc1cc(=O)n(CCc2ccccc2)c(O)c1C#N`: > 4 mM (inactive); for `O=c1ccc2cc(O[C@@H]3O[C@H](CO)[C@@H](O)[C@H](O)[C@H]3O)c(O)cc2o1`: > 4 mM (inactive).
The same measure for `c1csc(-c2nnc3ccccn23)c1`: > 4 mM (inactive).
The same measure for `NC(=O)CN1CCC(c2nc3ccccc3[nH]2)CC1`: > 4 mM (inactive); for `O=C(O)C1CC(=O)N(Cc2ccc(F)cc2)C1` (stereo not drawn): > 4 mM (inactive).
For `O=C(COc1ccccc1)N1CCc2ccccc2C1`, the Kd is > 4 mM (inactive).
The same measure for `O=C(NC(O)C(=O)c1ccccc1)c1ccco1` (stereo not drawn): > 4 mM (inactive); for `O=C(CSc1ncccn1)NCc1ccco1`: > 4 mM (inactive); for `CC(C)=CCc1c(O)cc(C)oc1=O`: > 4 mM (inactive).
The same measure for `O=c1/c(=C/c2cccs2)sc2ncnn12`: > 4 mM (inactive); for `Cc1ccc(NC(=O)/C=C2\SC(=O)NC2=O)cc1`: > 4 mM (inactive); for `Cc1cc(=O)[nH]c(NCC(=O)O)n1`: > 4 mM (inactive).
Turning to `CN1CCC(NC(=O)c2c(F)cccc2Cl)CC1`, the Kd was > 4 mM (inactive).
As for `N/C(=N/O)C1COc2ccccc2O1` (stereo not drawn), the Kd is > 4 mM (inactive).
The same measure for `Cc1onc(-c2ccccc2)c1CO`: > 4 mM (inactive); for `CN(C)c1nc(N)nc(-c2nc3ccccc3s2)n1`: > 4 mM (inactive); for `Nc1c(F)c(F)nc(F)c1F`: > 4 mM (inactive).
The same measure for `CC12CN([N+](=O)[O-])C3(C(N)=O)CC1CCC23C` (stereo not drawn): > 4 mM (inactive); for `O=S1(=O)C=C(Nc2ccccc2)CC1`: > 4 mM (inactive).
Consider `C/C1=C\CCC(=O)C2CC(C)(C)C2CC1` (stereo not drawn), for which the Kd is > 4 mM (inactive).
The same measure for `C=C[C@@H](C1=CC(=O)C(OC)=C(OC)C1=O)c1ccccc1`: > 4 mM (inactive); for `CCOC(=O)C1C(C=C(C)C)C1(C)C` (stereo not drawn): > 4 mM (inactive).
The same measure for `c1cc(C(N2CCOCC2)N2CCOCC2)ccn1`: > 4 mM (inactive); for `CNC(=O)n1ccc(C(=O)N2CCCCC2)n1`: > 4 mM (inactive).
Regarding `Cc1cc(C(=O)Nc2cccnc2)cs1`, the Kd is > 4 mM (inactive).
The same measure for `CNC(=O)C1=NCCCc2cc(OC)c(OC)cc21`: > 4 mM (inactive).
Consider `COC(=O)c1cccc(Cn2nnc3ccccc3c2=O)c1`, for which the Kd was > 4 mM (inactive).
The same measure for `Cc1cc(NC(=O)CSc2nncn2C)no1`: > 4 mM (inactive); for `NC(=O)c1oc2ccccc2c1N`: > 4 mM (inactive).
On to `O=C(O)c1cccc(-n2cccc2)c1`, for which the Kd was > 4 mM (inactive).
The same measure for `CNC(=O)c1cccc(NC(=S)NC)c1`: > 4 mM (inactive).
Regarding `NCCC(=O)N[C@@H](Cc1cnc[nH]1)C(=O)O`, the Kd is > 4 mM (inactive).
The same measure for `CC[C@]12CCCN3CCc4c(n(c5ccccc45)[C@](O)(C(=O)OC)C1)[C@@H]32`: > 4 mM (inactive); for `COc1ccc2cc1Oc1ccc(cc1)C[C@H]1c3c(cc4c(c3Oc3cc5c(cc3OC)CCN(C)[C@@H]5C2)OCO4)CCN1C`: > 4 mM (inactive); for `C=Cc1c(C)c2cc3[nH]c(cc4nc(cc5nc(cc1[nH]2)C(C)=C5CCC(=O)O)C(CCC(=O)O)=C4C)c(C)c3C=C`: > 4 mM (inactive).
The same measure for `NC(=O)NC(=O)Nc1ccc(Cl)cc1`: > 4 mM (inactive); for `O=C(O)c1ccc(-c2cccs2)cc1`: > 4 mM (inactive).
Turning to `O=C1CCC(C(=O)NCc2ccc(Cl)cc2)N1` (stereo not drawn), the Kd is > 4 mM (inactive).
On to `Cc1nn2c(=O)c(NC(=O)c3ccccc3)cnc2s1`, for which the Kd is > 4 mM (inactive).
The same measure for `OCc1ccc2c(c1)OCCCO2`: > 4 mM (inactive).
In the case of `CN(C)C(=O)CSc1nc(N)cc(=O)[nH]1`, the Kd was > 4 mM (inactive).
The same measure for `COC(=O)C1=C(C)N(c2cccc(C(C)=O)c2)C(=O)C1`: > 4 mM (inactive).
As to `Cc1cc(C(=O)N2CCN(c3ncccn3)CC2)c(C)o1`, the Kd was > 4 mM (inactive).
The same measure for `Cc1ccc(C(=O)N2CCC(C(N)=O)CC2)cc1C`: > 4 mM (inactive).
The same measure for `O=C(O)CCC1=C2c3ccccc3CCN2C(=O)CC1`: > 4 mM (inactive); for `CCOC(=O)Cn1cnc2sc3c(c2c1=O)CCC3`: > 4 mM (inactive); for `NC(=O)CCn1c(=O)oc2ccccc21`: > 4 mM (inactive).
The same measure for `COc1ccccc1-c1nc(-c2ccc(C)nc2OC)no1`: > 4 mM (inactive).
As for `CC(C)c1c(O)ccc2c1CCC1[C@@](C)(C=O)CCC[C@]21C` (stereo partly drawn), the Kd was > 4 mM (inactive).
For the molecule `OCc1ccc2occc2c1`, the Kd is > 4 mM (inactive).
Consider `CC(=O)c1c(C)n(O)c2ccc3nonc3c12`, for which the Kd was > 4 mM (inactive).
Regarding `S=C=NCc1ccccc1`, the Kd is > 4 mM (inactive).
The same measure for `O=S1(=O)CCC(NC(=S)Nc2ccc(O)cc2)C1` (stereo not drawn): > 4 mM (inactive).
The same measure for `COc1ccc(-c2cc(=O)c3cc(OC)ccc3o2)cc1`: > 4 mM (inactive).
On to `Cc1ccc(-c2nc(-c3cccnc3)no2)c(C)c1`, for which the Kd was > 4 mM (inactive).
Turning to `OCc1ccccc1N1CCOCC1`, the Kd was > 4 mM (inactive).
For `O=C1c2ccncc2C(=O)N1CNc1ccccn1`, the Kd was > 4 mM (inactive).
For the molecule `COc1ccc2c(c1)OCC(Cc1ccc(OC)c(OC)c1)C2=O` (stereo not drawn), the Kd was > 4 mM (inactive).
In the case of `COc1ccc(O)c(-c2cn[nH]c2-c2cccs2)c1`, the Kd is > 4 mM (inactive).
The same measure for `CN(C)c1nc(N)nc(Cn2ccnc2)n1`: > 4 mM (inactive).
The same measure for `O=C1CC(N2CCC(O)CC2)C(=O)N1c1ccc(F)cc1` (stereo not drawn): > 4 mM (inactive); for `O=C(Cn1cncn1)c1ccc(F)c(F)c1`: > 4 mM (inactive).
As for `O=C(NC1=NCCS1)c1ccc2snnc2c1`, the Kd was > 4 mM (inactive).
The same measure for `NC1=NC(=O)/C(=C\c2ccccc2)S1`: > 4 mM (inactive).
Regarding `C=C1C2CC[C@@]3(C)[C@H](c4ccoc4)OC(=O)C[C@]13O[C@H]1C[C@H](OC(C)=O)C(C)(C)[C@H](CC(=O)OC)[C@@]21C`, the Kd is > 4 mM (inactive).
The same measure for `Cc1ccc(N)nc1`: > 4 mM (inactive); for `CC(C)c1ccc(NC(=O)C(N)=O)cc1`: > 4 mM (inactive); for `Cc1noc(C)c1C(=O)Nc1ccccc1-c1ccccc1`: > 4 mM (inactive).

Source of the values: PubChem BioAssay AID1549 (Sanford-Burnham Center for Chemical Genomics, 2009).
